# Results as given in publication PMC9368227, “Investigation of Radiotracer Metabolic Stability In Vitro with CYP-Overexpressing Hepatoma Cell Lines” (Cells, 2022).
# Key:
# HepG2 CYP1A2 = assay: Competitive coincubation of [18F]1 with competitors, HepG2 CYP1A2; settings: 1 h; competitor 1 or 10 µM
# Method: (§1) Radio thin-layer chromatography (radio-TLC) was carried out on reversed-phase TLC plates (ALUGRAM RP-18W/UV254 from Macherey-Nagel, Düren, Germany) with a mobile phase of 45% ACN in water containing 0.1% trifluoroacetic acid. The samples (2 µL) were spotted onto the TLC plate. The line of origin and the front line were labeled with 1/5 of the sample activity concentration. To track the Rf value of the intact radiotracer, each TLC was spotted with the intact tracer as reference in the middle. Detection of the activity signals was achieved after 10–30 min development on radioluminographic imaging plates (FUJIFILM, Tokyo, Japan) and subsequent readout with Fuji BAS 5000® or Amersham™ Typhoon™ from GE Healthcare (Uppsala, Sweden). The resulting chromatographic profile was analyzed and integrated with the help of AIDA Image Analysis Software (version 5.1). For data depiction, the fraction of each species (intact radiotracer, metabolite, [^18F]fluoride) was plotted.
# (§2) Incubations were conducted for up to 2 h in a 96-well plate in KHB with a total incubation volume of 50 µL and an ethanol concentration of 0.4%. For the incubation with radiotracers, an activity of 100–200 kBq/well at the start of the experiment was used.
# (§3) Our last interest within this study was to test if the tracer itself could function as an indicator for the conversion of other substrates acting via inhibition of or competition with the CYP enzymes. In this regard, alternative substrates were added to the incubation mixtures with [^18F]1. The investigated substrates covered testosterone, caffeine, progesterone, compound 3, tebufelone, and RWJ63556 [44] (10 µM for all substances). Furthermore, the influence of testosterone on the metabolic turnover of [^18F]1 was investigated over a concentration range of 1–50 µM.
# Figure 7 Coincubation of [^18F]1 and different competitors with (A) HepG2 CYP1A2 and (B) HepG2 CYP2C19. […] Each competitor/inhibitor was incubated with [^18F]1 for 1 h followed by radio-TLC analysis. Activity concentrations of 94–197 kBq/well (1.9–3.9 MBq/mL) were used at start of experiment, which correspond to a concentration of 120–125 nM. Statistical analysis performed with Dunnett’s multiple comparison (post hoc test) according to the intact tracer amount (* p < 0.05; *** p < 0.001; **** p < 0.0001; n = 4).
# HepG2 CYP2C19 = assay: Competitive coincubation of [18F]1 with competitors, HepG2 CYP2C19; settings: 1 h, competitor 10 µM
# Method: as §1, §2, §3
# Figure 7 Coincubation of [^18F]1 and different competitors with (A) HepG2 CYP1A2 and (B) HepG2 CYP2C19. […] Each competitor/inhibitor was incubated with [^18F]1 for 1 h followed by radio-TLC analysis. […]
# HepG2 cells = assay: Testosterone control incubation (conversion to androstenedione), LC-MS/MS; settings: 2.5 µM testosterone; within 2 h; 3 × 10^5 cells/well in 96-well plate
# Method: Testosterone (SIGMA-ALDRICH, Taufkirchen, Germany) was dissolved in pure ethanol. Control incubations with testosterone were carried out for 2 h with 2.5 µM testosterone, 0.05% ethanol, and a total volume of 150 µL in the cavities of a 96-well plate. The supernatant was prepared and analyzed by UPLC–MS/MS (System 2; 45% isocratic elution). Testosterone was monitored at transitions for [M + H]^+ 289.24 > 97.08 and 289.24 > 109.05 with cone voltage 52 V and collision energy 20 V, while the CYP-mediated metabolite androstenedione was monitored at transitions for [M + H]^+ 287.22 > 97.08 (collision energy 18 V) and 287.22 > 109.05 (collision energy 20 V) with a cone voltage of 50 V each.
SMILES,Effect of coincubation on metabolic profile / intact [18F]1 (in words) (HepG2 CYP1A2),Increase of intact tracer [18F]1 versus incubation without additional substances (HepG2 CYP2C19),Testosterone consumed (HepG2 cells),Effect of coincubation on intact [18F]1 amount (in words) (HepG2 CYP2C19; testosterone 1–50 µM)
Cn1c(=O)c2c(ncn2C)n(C)c1=O [caffeine],no change in the metabolic profile,–,–,–
Cc1ccc(-c2cc(CCF)nn2-c2ccc(S(C)(=O)=O)cc2)cc1 [compound 3],slightly increased the intact tracer amount,–,–,–
CC(=O)[C@H]1CC[C@H]2[C@@H]3CCC4=CC(=O)CC[C@]4(C)[C@H]3CC[C@]12C [progesterone],no change in the metabolic profile,twofold,–,–
C[C@]12CC[C@H]3[C@@H](CCC4=CC(=O)CC[C@@]43C)[C@@H]1CC[C@@H]2O [testosterone],no change in the metabolic profile,–,more than 50%,slight increase in the amount of intact radiotracer
